Results: patent US20120094998A1, “Oligomer-Protein Tyrosine Kinase Inhibitor Conjugates” (Nektar Therapeutics, priority 2009, published 2012)
Like-named read-outs stand apart in the source and are kept apart here.

Columns and labels:
Format in all cases: biochemical
ABL (T315I) = ABL (T315I) (Homo sapiens, UniProt P00519, T315I); test: Activity against various protein tyrosine kinases: ABL (T315I); conditions: for inhibition at 0.01 µM: read-out: % Inhibition at 10 nM; for inhibition at 1 µM: read-out: % Inhibition at 1 μM
Experimental: (§1) Using techniques know those of ordinary skill in the art, compounds were tested for activity against various protein tyrosine kinases.

AurC = biological target: T1, AurC (Homo sapiens, UniProt Q9UQB9); test: Activity against various protein tyrosine kinases: AurC; conditions: for inhibition at 0.01 µM: 10 nM
T1 sequence (Q9UQB9 1-309): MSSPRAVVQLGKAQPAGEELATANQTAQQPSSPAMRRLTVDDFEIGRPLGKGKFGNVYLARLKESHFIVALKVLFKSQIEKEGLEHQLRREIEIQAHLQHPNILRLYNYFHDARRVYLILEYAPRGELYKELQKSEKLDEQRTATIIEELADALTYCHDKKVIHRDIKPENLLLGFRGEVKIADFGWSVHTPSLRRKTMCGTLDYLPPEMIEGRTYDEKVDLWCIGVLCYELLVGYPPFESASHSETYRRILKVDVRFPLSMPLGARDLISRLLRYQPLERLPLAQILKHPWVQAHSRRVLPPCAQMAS
Experimental: as §1

BTK = BTK (Homo sapiens, UniProt Q06187); test: Activity against various protein tyrosine kinases: BTK; conditions: for inhibition at 0.01 µM: 10 nM
Experimental: as §1

EPHA2 = EPHA2 (Homo sapiens, UniProt P29317); test: Activity against various protein tyrosine kinases: EPHA2; conditions: for inhibition at 0.01 µM: 10 nM
EPHA2, sequence (P29317 24-976, species assumed): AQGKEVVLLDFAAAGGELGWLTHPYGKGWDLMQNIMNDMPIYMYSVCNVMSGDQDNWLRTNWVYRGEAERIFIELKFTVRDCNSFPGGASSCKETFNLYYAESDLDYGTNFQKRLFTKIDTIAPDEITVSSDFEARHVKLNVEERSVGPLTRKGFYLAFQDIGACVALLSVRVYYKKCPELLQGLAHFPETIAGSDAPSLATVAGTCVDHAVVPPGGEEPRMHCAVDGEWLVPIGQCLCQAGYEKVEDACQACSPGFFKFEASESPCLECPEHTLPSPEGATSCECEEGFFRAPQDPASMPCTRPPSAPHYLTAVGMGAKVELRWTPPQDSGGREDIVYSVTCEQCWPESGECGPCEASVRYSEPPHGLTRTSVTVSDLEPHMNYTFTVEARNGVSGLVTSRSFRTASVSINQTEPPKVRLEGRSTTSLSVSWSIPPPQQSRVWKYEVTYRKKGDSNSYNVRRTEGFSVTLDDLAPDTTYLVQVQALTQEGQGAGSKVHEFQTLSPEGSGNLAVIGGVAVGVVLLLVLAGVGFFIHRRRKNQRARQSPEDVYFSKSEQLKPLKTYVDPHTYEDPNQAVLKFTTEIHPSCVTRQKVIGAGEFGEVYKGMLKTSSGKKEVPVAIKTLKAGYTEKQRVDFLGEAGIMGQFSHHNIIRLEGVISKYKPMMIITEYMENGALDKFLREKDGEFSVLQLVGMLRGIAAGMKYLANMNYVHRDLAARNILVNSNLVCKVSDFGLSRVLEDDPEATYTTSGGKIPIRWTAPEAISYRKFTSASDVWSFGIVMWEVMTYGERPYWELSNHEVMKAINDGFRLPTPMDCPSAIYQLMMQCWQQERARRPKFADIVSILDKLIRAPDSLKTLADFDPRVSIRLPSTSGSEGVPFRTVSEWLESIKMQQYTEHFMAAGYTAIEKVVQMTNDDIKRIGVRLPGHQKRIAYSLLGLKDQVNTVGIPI
Experimental: as §1

Erk1 = Erk1 (Homo sapiens, UniProt P27361); test: Activity against various protein tyrosine kinases: Erk1; conditions: for inhibition at 0.01 µM: 10 nM
Erk1, sequence (P27361 whole entry, species assumed): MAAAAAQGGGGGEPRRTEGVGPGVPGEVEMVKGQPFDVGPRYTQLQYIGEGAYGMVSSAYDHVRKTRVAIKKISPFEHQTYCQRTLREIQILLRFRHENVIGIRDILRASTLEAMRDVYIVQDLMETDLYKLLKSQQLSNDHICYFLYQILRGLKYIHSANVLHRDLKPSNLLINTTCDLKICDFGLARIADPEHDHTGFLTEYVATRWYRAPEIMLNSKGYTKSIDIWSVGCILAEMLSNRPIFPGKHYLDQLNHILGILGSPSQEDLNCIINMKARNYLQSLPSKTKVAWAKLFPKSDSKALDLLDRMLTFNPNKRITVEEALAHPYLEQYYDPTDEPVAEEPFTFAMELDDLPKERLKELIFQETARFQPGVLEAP
Experimental: as §1

FGFR3 = FGFR3 (Homo sapiens, UniProt P22607); test: Activity against various protein tyrosine kinases: FGFR3; conditions: for inhibition at 0.01 µM: 10 nM
FGFR3, sequence (P22607 23-806, species assumed): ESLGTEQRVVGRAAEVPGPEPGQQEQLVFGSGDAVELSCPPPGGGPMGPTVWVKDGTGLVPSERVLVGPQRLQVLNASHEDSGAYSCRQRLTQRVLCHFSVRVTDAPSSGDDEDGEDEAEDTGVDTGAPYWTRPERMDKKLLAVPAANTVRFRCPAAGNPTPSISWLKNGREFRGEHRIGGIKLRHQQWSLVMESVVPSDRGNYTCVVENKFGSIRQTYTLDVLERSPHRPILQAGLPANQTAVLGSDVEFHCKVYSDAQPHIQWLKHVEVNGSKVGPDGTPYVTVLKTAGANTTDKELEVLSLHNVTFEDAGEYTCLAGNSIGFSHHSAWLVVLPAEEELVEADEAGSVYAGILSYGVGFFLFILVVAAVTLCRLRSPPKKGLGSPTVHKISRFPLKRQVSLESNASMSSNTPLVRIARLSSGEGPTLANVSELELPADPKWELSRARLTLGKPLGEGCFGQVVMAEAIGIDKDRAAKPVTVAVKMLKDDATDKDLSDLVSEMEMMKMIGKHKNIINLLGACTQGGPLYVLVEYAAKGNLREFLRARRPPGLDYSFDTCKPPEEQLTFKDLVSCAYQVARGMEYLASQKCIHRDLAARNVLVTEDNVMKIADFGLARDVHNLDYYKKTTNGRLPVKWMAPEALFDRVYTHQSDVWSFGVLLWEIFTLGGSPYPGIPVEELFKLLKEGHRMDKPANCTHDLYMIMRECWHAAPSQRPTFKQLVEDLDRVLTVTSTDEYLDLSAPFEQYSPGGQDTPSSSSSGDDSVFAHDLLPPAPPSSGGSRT
Experimental: as §1

HCK = HCK (Homo sapiens, UniProt P08631); test: Activity against various protein tyrosine kinases: HCK; conditions: for inhibition at 0.01 µM: 10 nM
HCK, sequence (P08631 whole entry, species assumed): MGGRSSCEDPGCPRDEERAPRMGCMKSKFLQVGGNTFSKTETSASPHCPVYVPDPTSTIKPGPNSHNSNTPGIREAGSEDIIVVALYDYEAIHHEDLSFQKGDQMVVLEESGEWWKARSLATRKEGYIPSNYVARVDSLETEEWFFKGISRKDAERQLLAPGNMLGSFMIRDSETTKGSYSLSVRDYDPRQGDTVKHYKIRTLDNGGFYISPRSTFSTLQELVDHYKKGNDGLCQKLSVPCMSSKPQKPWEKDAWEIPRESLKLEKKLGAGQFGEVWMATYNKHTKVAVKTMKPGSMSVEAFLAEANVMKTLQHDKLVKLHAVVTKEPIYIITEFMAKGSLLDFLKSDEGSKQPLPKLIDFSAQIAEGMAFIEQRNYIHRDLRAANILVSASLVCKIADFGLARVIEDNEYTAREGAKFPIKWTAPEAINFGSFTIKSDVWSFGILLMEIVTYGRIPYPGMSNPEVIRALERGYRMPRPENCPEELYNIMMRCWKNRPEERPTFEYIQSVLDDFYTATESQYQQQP
Experimental: as §1

INSR = INSR (Homo sapiens, UniProt P06213); test: Activity against various protein tyrosine kinases: INSR; conditions: for inhibition at 0.01 µM: 10 nM
INSR, sequence (P06213 28-1382, species assumed): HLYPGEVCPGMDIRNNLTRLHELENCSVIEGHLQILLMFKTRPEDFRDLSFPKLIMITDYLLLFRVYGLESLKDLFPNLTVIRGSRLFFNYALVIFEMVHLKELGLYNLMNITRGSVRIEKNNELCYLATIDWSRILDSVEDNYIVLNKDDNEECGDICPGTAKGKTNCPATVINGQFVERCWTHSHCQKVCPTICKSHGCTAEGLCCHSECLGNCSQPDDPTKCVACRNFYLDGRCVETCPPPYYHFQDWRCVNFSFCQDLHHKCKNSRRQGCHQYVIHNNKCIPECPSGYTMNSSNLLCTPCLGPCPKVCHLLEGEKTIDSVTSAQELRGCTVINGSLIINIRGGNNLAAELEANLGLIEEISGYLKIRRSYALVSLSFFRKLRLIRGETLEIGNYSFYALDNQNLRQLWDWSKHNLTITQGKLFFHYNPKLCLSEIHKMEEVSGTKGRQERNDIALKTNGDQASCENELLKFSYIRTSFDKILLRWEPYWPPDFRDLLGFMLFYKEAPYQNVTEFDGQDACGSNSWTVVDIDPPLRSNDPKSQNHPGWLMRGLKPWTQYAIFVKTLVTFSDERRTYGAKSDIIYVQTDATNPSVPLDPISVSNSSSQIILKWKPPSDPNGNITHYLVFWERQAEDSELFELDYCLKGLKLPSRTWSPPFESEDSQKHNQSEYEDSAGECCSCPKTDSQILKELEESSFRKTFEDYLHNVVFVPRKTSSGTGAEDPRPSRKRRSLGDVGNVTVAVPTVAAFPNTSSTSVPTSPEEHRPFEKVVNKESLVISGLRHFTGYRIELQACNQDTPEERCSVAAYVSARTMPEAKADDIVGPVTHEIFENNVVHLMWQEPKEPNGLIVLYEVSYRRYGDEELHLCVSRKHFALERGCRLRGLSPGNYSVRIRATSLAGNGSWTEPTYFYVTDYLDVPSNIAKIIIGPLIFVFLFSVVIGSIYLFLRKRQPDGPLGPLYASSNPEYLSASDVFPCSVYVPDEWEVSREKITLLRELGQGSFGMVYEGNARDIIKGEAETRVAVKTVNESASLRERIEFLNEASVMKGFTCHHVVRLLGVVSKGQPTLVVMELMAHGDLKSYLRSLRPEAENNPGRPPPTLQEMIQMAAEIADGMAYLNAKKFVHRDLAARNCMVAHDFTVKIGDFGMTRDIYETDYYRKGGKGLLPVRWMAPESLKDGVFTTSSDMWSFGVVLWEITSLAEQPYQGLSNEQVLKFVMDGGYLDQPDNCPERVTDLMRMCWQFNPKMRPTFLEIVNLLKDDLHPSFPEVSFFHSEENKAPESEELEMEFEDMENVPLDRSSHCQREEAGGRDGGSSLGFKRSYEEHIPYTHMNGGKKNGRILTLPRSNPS
Experimental: as §1

LCK = LCK (Homo sapiens, UniProt P06239); test: Activity against various protein tyrosine kinases: LCK; conditions: for inhibition at 0.01 µM: 10 nM
LCK, sequence (P06239 whole entry, species assumed): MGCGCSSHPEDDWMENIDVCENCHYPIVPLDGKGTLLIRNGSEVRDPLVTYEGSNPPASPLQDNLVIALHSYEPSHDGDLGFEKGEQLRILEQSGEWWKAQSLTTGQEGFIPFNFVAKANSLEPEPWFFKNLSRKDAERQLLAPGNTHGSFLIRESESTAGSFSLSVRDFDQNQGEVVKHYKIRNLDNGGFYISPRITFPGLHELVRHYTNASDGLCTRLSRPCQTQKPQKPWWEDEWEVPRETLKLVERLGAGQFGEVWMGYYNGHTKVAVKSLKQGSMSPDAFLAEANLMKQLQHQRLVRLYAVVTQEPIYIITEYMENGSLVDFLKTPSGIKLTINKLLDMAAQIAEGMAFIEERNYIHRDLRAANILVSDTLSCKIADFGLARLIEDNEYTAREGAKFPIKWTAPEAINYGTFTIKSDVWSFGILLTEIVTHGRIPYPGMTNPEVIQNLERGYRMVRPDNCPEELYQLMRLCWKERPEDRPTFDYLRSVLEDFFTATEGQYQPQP
Experimental: as §1

LYN = LYN (Homo sapiens, UniProt P07948); test: Activity against various protein tyrosine kinases: LYN; conditions: for inhibition at 0.01 µM: 10 nM
LYN, sequence (P07948 whole entry, species assumed): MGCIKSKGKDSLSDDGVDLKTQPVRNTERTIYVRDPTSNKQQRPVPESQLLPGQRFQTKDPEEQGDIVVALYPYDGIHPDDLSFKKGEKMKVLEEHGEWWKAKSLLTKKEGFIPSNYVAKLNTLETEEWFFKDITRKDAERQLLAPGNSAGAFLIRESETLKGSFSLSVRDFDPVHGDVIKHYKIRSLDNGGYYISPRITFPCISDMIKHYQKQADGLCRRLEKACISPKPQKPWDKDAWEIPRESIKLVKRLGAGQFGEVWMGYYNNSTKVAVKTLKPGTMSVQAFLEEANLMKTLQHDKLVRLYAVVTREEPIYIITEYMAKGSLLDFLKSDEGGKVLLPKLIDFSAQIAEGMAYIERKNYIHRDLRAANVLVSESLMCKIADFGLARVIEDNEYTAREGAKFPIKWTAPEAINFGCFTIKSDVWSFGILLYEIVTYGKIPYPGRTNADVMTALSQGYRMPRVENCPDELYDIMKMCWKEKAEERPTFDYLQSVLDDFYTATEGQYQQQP
Experimental: as §1

p38-delta = biological target: T2, p38-delta (Homo sapiens, UniProt O15264); test: Activity against various protein tyrosine kinases: p38-delta; conditions: for inhibition at 0.01 µM: 10 nM
T2 sequence (O15264 1-365): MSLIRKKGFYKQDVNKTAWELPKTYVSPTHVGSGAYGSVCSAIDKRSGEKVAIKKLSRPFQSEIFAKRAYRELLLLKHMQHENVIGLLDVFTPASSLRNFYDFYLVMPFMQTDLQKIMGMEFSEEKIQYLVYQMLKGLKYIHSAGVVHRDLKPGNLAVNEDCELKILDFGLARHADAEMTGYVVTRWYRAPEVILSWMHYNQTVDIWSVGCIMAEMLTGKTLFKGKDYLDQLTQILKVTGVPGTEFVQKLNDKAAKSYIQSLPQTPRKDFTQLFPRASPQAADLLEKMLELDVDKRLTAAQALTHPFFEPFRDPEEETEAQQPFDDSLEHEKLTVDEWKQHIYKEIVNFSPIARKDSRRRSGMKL
Experimental: as §1

PKA = test: Activity against various protein tyrosine kinases: PKA
Experimental: as §1

PKD2 = biological target: T3, PKD2 (Homo sapiens, UniProt Q9BZL6); test: Activity against various protein tyrosine kinases: PKD2; conditions: for inhibition at 0.01 µM: 10 nM
T3 sequence (Q9BZL6 1-878): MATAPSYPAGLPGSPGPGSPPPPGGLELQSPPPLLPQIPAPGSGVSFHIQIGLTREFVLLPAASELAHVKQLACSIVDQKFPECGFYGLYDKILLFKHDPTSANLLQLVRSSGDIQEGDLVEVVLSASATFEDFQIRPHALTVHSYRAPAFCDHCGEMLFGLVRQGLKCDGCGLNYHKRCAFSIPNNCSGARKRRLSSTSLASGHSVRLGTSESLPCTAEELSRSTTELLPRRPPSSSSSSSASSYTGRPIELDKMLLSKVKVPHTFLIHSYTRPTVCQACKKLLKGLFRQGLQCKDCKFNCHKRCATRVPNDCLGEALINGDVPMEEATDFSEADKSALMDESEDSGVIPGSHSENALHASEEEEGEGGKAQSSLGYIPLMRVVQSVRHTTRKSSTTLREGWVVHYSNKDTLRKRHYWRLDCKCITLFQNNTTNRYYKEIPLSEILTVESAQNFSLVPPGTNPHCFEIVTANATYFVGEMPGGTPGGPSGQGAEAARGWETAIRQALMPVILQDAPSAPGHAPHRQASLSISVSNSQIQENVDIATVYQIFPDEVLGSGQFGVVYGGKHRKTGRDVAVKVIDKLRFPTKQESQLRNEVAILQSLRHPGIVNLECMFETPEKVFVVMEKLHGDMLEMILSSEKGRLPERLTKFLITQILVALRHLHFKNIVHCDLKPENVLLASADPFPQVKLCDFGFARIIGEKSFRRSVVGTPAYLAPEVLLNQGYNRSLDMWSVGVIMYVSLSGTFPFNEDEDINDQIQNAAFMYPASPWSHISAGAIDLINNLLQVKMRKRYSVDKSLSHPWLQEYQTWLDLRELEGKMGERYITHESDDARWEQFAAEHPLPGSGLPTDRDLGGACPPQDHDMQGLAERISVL
Experimental: as §1

ABL = ABL (Homo sapiens, UniProt P00519); test: Activity against various protein tyrosine kinases: ABL; set-up: purchased MILLIPORE 14-529; conditions: for inhibition at 0.01 µM: read-out: % Inhibition at 10 nM; for inhibition at 1 µM: read-out: % Inhibition at 1 μM
Experimental: as §1

inhibition at 0.01 µM (AurC) [%]	inhibition at 1 µM (AurC) [%]	inhibition at 0.01 µM (BTK) [%]	inhibition at 1 µM (BTK) [%]	inhibition at 0.01 µM (EPHA2) [%]	inhibition at 1 µM (EPHA2) [%]	inhibition at 0.01 µM (Erk1) [%]	inhibition at 1 µM (Erk1) [%]	inhibition at 0.01 µM (FGFR3) [%]	inhibition at 1 µM (FGFR3) [%]	inhibition at 0.01 µM (HCK) [%]	inhibition at 1 µM (HCK) [%]	inhibition at 0.01 µM (INSR) [%]	inhibition at 1 µM (INSR) [%]	inhibition at 0.01 µM (LCK) [%]	inhibition at 1 µM (LCK) [%]	inhibition at 0.01 µM (LYN) [%]	inhibition at 1 µM (LYN) [%]	inhibition at 0.01 µM (p38-delta) [%]	inhibition at 1 µM (p38-delta) [%]	SMILES	other results
-1	0	99	100	40	100	3	2	3	11	98	98	1	-1	97	98	99	99	0	2	COCCOCCOCCNC(=O)OCCN1CCN(c2cc(Nc3ncc(C(=O)Nc4c(C)cccc4Cl)s3)nc(C)n2)CC1 [mPEG3-NHCOO-Dasatinib]	inhibition at 0.01 µM (ABL (T315I)): 1%; inhibition at 1 µM (ABL (T315I)): 36%; % Inhibition at 10 nM (PKA): 3%; % Inhibition at 1 μM (PKA): 0%; inhibition at 0.01 µM (PKD2): 12%; inhibition at 1 µM (PKD2): -5%; inhibition at 0.01 µM (ABL): 99%; inhibition at 1 µM (ABL): 99%
0	2	99	100	36	101	3	4	2	10	98	99	2	3	98	98	98	98	0	0	COCCOCCOCCOCCOCCOCCOCCNC(=O)OCCN1CCN(c2cc(Nc3ncc(C(=O)Nc4c(C)cccc4Cl)s3)nc(C)n2)CC1 [mPEG7-NHCOO-Dasatinib]	inhibition at 0.01 µM (ABL (T315I); ABL (T315I), 10 nM): 4%; inhibition at 1 µM (ABL (T315I); ABL (T315I), 1 μM): 26%; % Inhibition at 10 nM (PKA): 0%; % Inhibition at 1 μM (PKA): 2%; inhibition at 0.01 µM (PKD2): 3%; inhibition at 1 µM (PKD2): 4%; inhibition at 0.01 µM (ABL; ABL, 10 nM): 99%; inhibition at 1 µM (ABL; ABL, 1 μM): 99%
